How the values were obtained:
[1] = assay type: physicochemical
Experimental: The three compounds meta nitro DKB, para nitro DKB, and BBP are dissolved at 250 mM in a Tris HCl 10 mM, pH 7.5, and 10% Trehalose solution. The solutions are lyophilized overnight in aliquots of 50 nmol. The dry products are then stored at 4° C. At regular intervals these aliquots are dissolved in methanol and 15 μl of these solutions are injected in HPLC (Waters) in order to measure the degradation of the principal product by integration of all of the peaks in the chromatogram (PDA Max Plot in the Empower software).

[2] = Accelerated stability in liquid medium (125 mM in 96/4 DMSO/methanol, ambient temperature), HPLC purity; assay type: physicochemical; conditions: 22° C., at 10 days
Experimental: For this purpose, an accelerated stability study is carried out under extreme conditions, in which the compounds are stored at 125 mM in a 96/4 DMSO/methanol mixture at ambient temperature (22° C.+/−1° C.). Note that these are extreme storage conditions.
The three compounds meta nitro DKB, para nitro DKB, and BBP, which are clearly shown in FIG. 10, are dissolved at 125 mM in a 96/4 DMSO/methanol mixture and are stored at ambient temperature (22° C. plus or minus 1° C.). At regular intervals subsequently, 2 μl of these solutions are injected in HPLC (basic method, Waters HPLC system) in order to measure the degradation of the principal product by integrating all of the peaks in the chromatogram (PDA Max Plot in the Empower 2 software).

## [Bio-EG3]2-PDAM [BBP]
[1]
  stability in dry form: does not withstand lyophilization
[1]; Tris HCl 10 mM pH 7.5, 10% Trehalose, lyophilized overnight
  breakdown during lyophilization: > 60%
[2]
  purity of the initial compound (HPLC): < 10%
